From patent US12509444B2, “Compounds and methods for CD73 modulation and indications therefor” (Plexxikon Inc., priority 2019, dated 2025)

Tests used:
[1] = biological target: T1, Human CD73 (amino acid residues 27-549) (Homo sapiens, UniProt P21589); assay: CD73 enzymatic assay (luciferase-based indirect assay, CellTiter-Glo); format: biochemical; conditions: 0.4 nM CD73, 150 μM AMP, 1 hour at room temperature
T1 construct: Human CD73 (amino acid residues 27-549); His tag (N); made in house; host or cells: E. coli
T1 sequence (P21589 27-549): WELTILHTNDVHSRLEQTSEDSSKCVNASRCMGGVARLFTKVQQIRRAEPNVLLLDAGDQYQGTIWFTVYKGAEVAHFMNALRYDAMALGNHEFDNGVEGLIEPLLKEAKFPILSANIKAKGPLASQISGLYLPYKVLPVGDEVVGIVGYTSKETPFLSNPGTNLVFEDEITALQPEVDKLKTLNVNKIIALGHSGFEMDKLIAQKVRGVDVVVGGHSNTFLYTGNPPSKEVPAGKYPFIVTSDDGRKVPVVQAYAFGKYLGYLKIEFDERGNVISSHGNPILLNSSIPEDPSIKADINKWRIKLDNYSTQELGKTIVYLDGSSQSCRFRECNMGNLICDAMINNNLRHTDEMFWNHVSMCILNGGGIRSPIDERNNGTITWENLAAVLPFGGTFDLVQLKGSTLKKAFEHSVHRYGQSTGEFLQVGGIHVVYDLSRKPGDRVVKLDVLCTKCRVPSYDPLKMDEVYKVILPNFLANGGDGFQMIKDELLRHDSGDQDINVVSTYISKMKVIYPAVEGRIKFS
Method in brief: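 Residual AMP inhibits luciferase, so luminescence reports CD73 turnover; read with CellTiter-Glo 2.0 plus 1 μM final ATP, 30 min. Reaction used 0.4 nM N-His CD73 (27-549, E. coli), 150 μM AMP, HEPES pH 7.4 with Tween 20, 1 h at room temperature. IC50 fitted by nonlinear regression.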

human CD73 = biological target: T2, human CD73 (Homo sapiens, UniProt P21589); assay: Inhibitor activity against CD73 in cell based assay (CD73 expressing CHO-K1 cells); conditions: CHO-K1 cells expressing human CD73, 150 μM AMP, 4 hours of incubation; read-out: CHO-K1 CELL VARIANT: CD73 IC50
T2 construct: expressed in transfected cells
T2 sequence (P21589 27-549): T1 sequence (P21589 27-549)
Method in brief: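 Residual supernatant AMP was quantified via CellTiter-Glo luminescence (1 μM ATP added, 30 min, room temperature) after a 4 h exposure of human CD73-expressing CHO-K1 cells to 150 μM AMP plus compound, top final 10 μM, 8 points. IC50 came from nonlinear regression of percent inhibition.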

SMILES	IC50 [1] [µM]	IC50 (human CD73) [µM]
O=C(NC1CCN(C(=O)C2CCCC2)CC1)O[C@@H]1CCN(c2cn[nH]c(=O)c2Cl)C1 [P-0377, (R)-1-(5-chloro-6-oxo-1,6-dihydropyridazin-4-yl)pyrrolidin-3-yl (1-(cyclopentanecarbonyl)piperidin-4-yl)carbamate]	0.001 to 10	0.001 to 10
CCc1c(N2CC[C@@H](OC(=O)NC3CCC(F)(F)CC3)C2)cn[nH]c1=O [P-0378, (R)-1-(5-ethyl-6-oxo-1,6-dihydropyridazin-4-yl)pyrrolidin-3-yl (4,4-difluorocyclohexyl)carbamate]	0.001 to 10	10 to 100
N#C[C@H]1CCC[C@H]1NC(=O)O[C@@H]1CCN(c2cn[nH]c(=O)c2Cl)C1 [P-0379, (R)-1-(5-chloro-6-oxo-1,6-dihydropyridazin-4-yl)pyrrolidin-3-yl ((1R,2S)-2-cyanocyclopentyl)carbamate]	0.001 to 10	0.001 to 10
N#C[C@@H]1CCC[C@H]1NC(=O)O[C@@H]1CCN(c2cn[nH]c(=O)c2Cl)C1 [P-0380, (R)-1-(5-chloro-6-oxo-1,6-dihydropyridazin-4-yl)pyrrolidin-3-yl ((1R,2R)-2-cyanocyclopentyl)carbamate]	0.001 to 10	0.001 to 10
CC1CCCC1NC(=O)O[C@@H]1CCN(c2cn[nH]c(=O)c2Cl)C1 (stereo partly drawn) [P-0381, (R)-1-(5-chloro-6-oxo-1,6-dihydropyridazin-4-yl)pyrrolidin-3-yl (2-methylcyclopentyl)carbamate]	0.001 to 10	0.001 to 10
COC(=O)C12CCC(NC(=O)O[C@@H]3CCN(c4cn[nH]c(=O)c4Cl)C3)(CC1)C2 [P-0382, methyl (R)-4-((((1-(5-chloro-6-oxo-1,6-dihydropyridazin-4-yl)pyrrolidin-3-yl)oxy)carbonyl)amino)bicyclo[2.2.1]heptane-1-carboxylate]	0.001 to 10	0.001 to 10
O=C(N[C@H]1CCC[C@H]1C(F)(F)F)O[C@@H]1CCN(c2cn[nH]c(=O)c2Cl)C1 [P-0383, (R)-1-(5-chloro-6-oxo-1,6-dihydropyridazin-4-yl)pyrrolidin-3-yl ((1S,2R)-2-(trifluoromethyl)cyclopentyl) carbamate]	0.001 to 10	0.001 to 10
O=C(N[C@@H]1CCC[C@H]1O)O[C@@H]1CCN(c2cn[nH]c(=O)c2Cl)C1 [P-0384, (R)-1-(5-chloro-6-oxo-1,6-dihydropyridazin-4-yl)pyrrolidin-3-yl ((1R,2R)-2-hydroxycyclopentyl)carbamate]	0.001 to 10	0.001 to 10
O=C(NC1CC2CC2C1)O[C@@H]1CCN(c2cn[nH]c(=O)c2Cl)C1 (stereo partly drawn) [P-0385, (R)-1-(5-chloro-6-oxo-1,6-dihydropyridazin-4-yl)pyrrolidin-3-yl bicyclo[3.1.0]hexan-3-ylcarbamate]	0.001 to 10	0.001 to 10
O=C(NC1CCCC1(F)F)O[C@@H]1CCN(c2cn[nH]c(=O)c2Cl)C1 (stereo partly drawn) [P-0386, (R)-1-(5-chloro-6-oxo-1,6-dihydropyridazin-4-yl)pyrrolidin-3-yl (2,2-difluorocyclopentyl)carbamate]	0.001 to 10	0.001 to 10
CC1(C)CCC(NC(=O)O[C@@H]2CCN(c3cn[nH]c(=O)c3Cl)C2)C1 (stereo partly drawn) [P-0387, (R)-1-(5-chloro-6-oxo-1,6-dihydropyridazin-4-yl)pyrrolidin-3-yl (3,3-dimethylcyclopentyl)carbamate]	0.001 to 10	0.001 to 10
O=C(NC1CCN(C(=O)Nc2ccccc2C(F)(F)F)CC1)O[C@@H]1CCN(c2cn[nH]c(=O)c2Cl)C1 [P-0388, (R)-1-(5-chloro-6-oxo-1,6-dihydropyridazin-4-yl)pyrrolidin-3-yl (1-((2-(trifluoromethyl)phenyl)carbamoyl)piperidin-4-yl) carbamate]	0.001 to 10	0.001 to 10
O=C(NC1CCN(C(=O)Nc2ccc(C(F)(F)F)cc2)CC1)O[C@@H]1CCN(c2cn[nH]c(=O)c2Cl)C1 [P-0389, (R)-1-(5-chloro-6-oxo-1,6-dihydropyridazin-4-yl)pyrrolidin-3-yl (1-((4-(trifluoromethyl)phenyl)carbamoyl)piperidin-4-yl) carbamate]	0.001 to 10	0.001 to 10
O=C(NC1CCN(C(=O)Nc2ccccc2F)CC1)O[C@@H]1CCN(c2cn[nH]c(=O)c2Cl)C1 [P-0390, (R)-1-(5-chloro-6-oxo-1,6-dihydropyridazin-4-yl)pyrrolidin-3-yl (1-((2-fluorophenyl)carbamoyl)piperidin-4-yl)carbamate]	0.001 to 10	0.001 to 10
O=C(NC1CCN(C(=O)Nc2cccc(F)c2)CC1)O[C@@H]1CCN(c2cn[nH]c(=O)c2Cl)C1 [P-0391, (R)-1-(5-chloro-6-oxo-1,6-dihydropyridazin-4-yl)pyrrolidin-3-yl (1-((3-fluorophenyl)carbamoyl)piperidin-4-yl)carbamate]	0.001 to 10	0.001 to 10
O=C(NC1CCCC1)O[C@@H]1CCN(c2cnn(CCO)c(=O)c2Cl)C1 [P-0392, (R)-1-(5-chloro-1-(2-hydroxyethyl)-6-oxo-1,6-dihydropyridazin-4-yl)pyrrolidin-3-yl cyclopentylcarbamate]	0.001 to 10	0.001 to 10
O=C(N[C@H]1CC[C@H](NS(=O)(=O)c2cnn(C3CCCC3)c2)CC1)O[C@@H]1CCN(c2cn[nH]c(=O)c2Cl)C1 [P-0393, (R)-1-(5-chloro-6-oxo-1,6-dihydropyridazin-4-yl)pyrrolidin-3-yl ((1r,4R)-4-((1-cyclopentyl-1H-pyrazole)-4-sulfonamido)cyclohexyl) carbamate]	0.001 to 10	0.001 to 10
CN([C@H]1CC[C@H](NC(=O)O[C@@H]2CCN(c3cn[nH]c(=O)c3Cl)C2)CC1)S(C)(=O)=O [P-0394, (R)-1-(5-chloro-6-oxo-1,6-dihydropyridazin-4-yl)pyrrolidin-3-yl ((1r,4R)-4-(N-methylmethylsulfonamido)cyclohexyl)carbamate]	0.001 to 10	0.001 to 10
N#Cc1c(N2CC[C@@H](OC(=O)NC3CCCC3)C2)cn[nH]c1=O [P-0395, (R)-1-(5-cyano-6-oxo-1,6-dihydropyridazin-4-yl)pyrrolidin-3-yl cyclopentylcarbamate]	0.001 to 10	0.001 to 10
CCn1cc(S(=O)(=O)N[C@H]2CC[C@H](NC(=O)O[C@@H]3CCN(c4cn[nH]c(=O)c4Cl)C3)CC2)cn1 [P-0396, (R)-1-(5-chloro-6-oxo-1,6-dihydropyridazin-4-yl)pyrrolidin-3-yl ((1r,4R)-4-((1-ethyl-1H-pyrazole)-4-sulfonamido)cyclohexyl) carbamate]	0.001 to 10	0.001 to 10
O=C(NC1CCCC1)O[C@@H]1CCN(c2cnn(CC(O)CO)c(=O)c2Cl)C1 (stereo partly drawn) [P-0397, (3R)-1-(5-chloro-1-(2,3-dihydroxypropyl)-6-oxo-1,6-dihydropyridazin-4-yl)pyrrolidin-3-yl cyclopentylcarbamate]	0.001 to 10	0.001 to 10
O=C(NC1CC1)N[C@H]1CC[C@@H](NC(=O)O[C@@H]2CCN(c3cnn(CCO)c(=O)c3Cl)C2)CC1 [P-0398, (R)-1-(5-chloro-1-(2-hydroxyethyl)-6-oxo-1,6-dihydropyridazin-4-yl)pyrrolidin-3-yl ((1s,4S)-4-(3-cyclopropylureido)cyclohexyl) carbamate]	0.001 to 10	0.001 to 10
C[C@H](O)C(=O)N1CCC(NC(=O)O[C@@H]2CCN(c3cn[nH]c(=O)c3Cl)C2)CC1 [P-0399, (R)-1-(5-chloro-6-oxo-1,6-dihydropyridazin-4-yl)pyrrolidin-3-yl (1-((S)-2-hydroxypropanoyl)piperidin-4-yl)carbamate]	0.001 to 10	0.001 to 10
C[C@@H](O)C(=O)N1CCC(NC(=O)O[C@@H]2CCN(c3cn[nH]c(=O)c3Cl)C2)CC1 [P-0400, (R)-1-(5-chloro-6-oxo-1,6-dihydropyridazin-4-yl)pyrrolidin-3-yl (1-((R)-2-hydroxypropanoyl)piperidin-4-yl)carbamate]	0.001 to 10	0.001 to 10
O=C(NC1CCN(C(=O)C2CCCO2)CC1)O[C@@H]1CCN(c2cn[nH]c(=O)c2Cl)C1 (stereo partly drawn) [P-0401, (R)-1-(5-chloro-6-oxo-1,6-dihydropyridazin-4-yl)pyrrolidin-3-yl (1-(tetrahydrofuran-2-carbonyl)piperidin-4-yl)carbamate]	0.001 to 10	0.001 to 10
O=C(NC1CCN(C(=O)c2ccccc2F)CC1)O[C@@H]1CCN(c2cn[nH]c(=O)c2Cl)C1 [P-0402, (R)-1-(5-chloro-6-oxo-1,6-dihydropyridazin-4-yl)pyrrolidin-3-yl (1-(2-fluorobenzoyl)piperidin-4-yl)carbamate]	0.001 to 10	0.001 to 10
